Inhibition data for one compound are collected here from patent US20110027205A1, “USE OF MYRTLE EXTRACT AS DEPIGMENTING AGENT” (PIERRE FABRE DERMO-COSMETIQUE, priority 2008, published 2011).

SMILES strings stand for the structures.

In this assay the test system is melanocytes. The assay is described as follows: Activity on melanogenesis (melanin content of melanocytes, 450 nm). Conditions: Melanocyte, 72 hours, read-out: % inhibition of melanin synthesis. It counts as cell-based. How it is done:
The melanocytes are left to incubate in a suitable culture medium at 37° C. for 72 hours in contact with the myrtle extract according to example 1, at different concentrations, and with hydroquinone, the reference substance. At the end of the incubation period, the melanocytes are collected and washed. The cells are then treated with a sodium solution to extract the melanin. The stained solutions are then assayed under 450 nm spectrophotometry for their melanin content using a calibration curve. A melanogenesis-inhibiting activity of the tested products will translate as a lower melanin content in the extracted melanocyte solutions. A prior cytotoxicity test is evidently performed on these same cells to verify the non-toxicity of the extracts at the tested concentrations.

As a reminder, the inhibition is the percentage by which the read-out fell short of the control. For the compound `Oc1ccc(O)cc1` [Hydroquinone], the inhibition at 5 µM (0.005 mM) is 35.7%. Further, the inhibition at 10 µM (0.01 mM) was found to be 58%.
